According to paper PMC8699473, “An Easily Expandable Multi-Drug LC-MS Assay for the Simultaneous Quantification of 57 Oral Antitumor Drugs in Human Plasma” (Cancers, 2021):

Legend:
[1] = Freeze-thaw stability in spiked pooled human plasma; format: physicochemical
[2] = Autosampler stability of ready for injection samples; format: physicochemical, human

Row | SMILES | Freeze-Thaw Accuracy [%] ([1]; validation standard 2xLLOV) | Freeze-Thaw Accuracy [%] ([1]; validation standard LLOV) | Freeze-Thaw Accuracy [%] ([1]; validation standard MOV) | Freeze-Thaw Accuracy [%] ([1]; validation standard ULOV) | Autosampler (24h, 4°C) Accuracy [%] ([2]; validation standard 2xLLOV) | Autosampler (72h, 4°C) Accuracy [%] ([2]; validation standard 2xLLOV) | Autosampler (24h, 4°C) Accuracy [%] ([2]; validation standard LLOV) | Autosampler (72h, 4°C) Accuracy [%] ([2]; validation standard LLOV) | Autosampler (24h, 4°C) Accuracy [%] ([2]; validation standard MOV) | Autosampler (72h, 4°C) Accuracy [%] ([2]; validation standard MOV) | Autosampler (24h, 4°C) Accuracy [%] ([2]; validation standard ULOV) | Autosampler (72h, 4°C) Accuracy [%] ([2]; validation standard ULOV)
1 | Cc1ccc(NC(=O)c2ccc(CN3CCN(C)CC3)cc2)cc1Nc1nccc(-c2cccnc2)n1 [Imatinib] | 98.5% | 100.6% | 96.7% | 96.3% | 115.2% | 116.1% | 102.3% | 103.7% | 108.3% | 101.7% | 95.3% | 95.2%
2 | CS(=O)(=O)CCNCc1ccc(-c2ccc3ncnc(Nc4ccc(OCc5cccc(F)c5)c(Cl)c4)c3c2)o1 [Lapatinib] | 96.0% | 86.5% | 102.3% | 94.7% | 99.4% | 102.1% | 92.7% | 94.4% | 103.2% | 101.5% | 99.7% | 98.8%
3 | O=C(Nc1cnn2ccc(N3CCC[C@@H]3c3cc(F)ccc3F)nc12)N1CC[C@H](O)C1 [Larotrectinib] | 100.6% | 97.9% | 100.3% | 102.3% | 87.6% | 100.3% | 79.4% | 75.5% | 104.6% | 101.2% | 102.3% | 104.4%
4 | Nc1cccc2c1CN(C1CCC(=O)NC1=O)C2=O (stereo not drawn) [Lenalidomide] | 104.4% | 91.0% | 97.3% | 96.8% | 117.5% | 109.8% | 80.7% | 95.6% | 107.0% | 100.0% | 100.8% | 98.9%
5 | COc1cc2nccc(Oc3ccc(NC(=O)NC4CC4)c(Cl)c3)c2cc1C(N)=O [Lenvatinib] | 102.5% | 111.6% | 98.4% | 103.0% | 102.4% | 97.9% | 110.0% | 103.7% | 100.6% | 98.6% | 102.6% | 102.7%
6 | CO[C@@H]1[C@H](N(C)C(=O)c2ccccc2)C[C@H]2O[C@]1(C)n1c3ccccc3c3c4c(c5c6ccccc6n2c5c31)C(=O)NC4 [Midostaurin] | 95.9% | 100.6% | 94.6% | 97.4% | 103.3% | 103.0% | 109.7% | 108.2% | 101.4% | 103.7% | 102.8% | 97.9%
